Measured values taken from patent publication US20150218654A1, “METHODS FOR PREDICTING MULTIPLE MYELOMA TREATMENT RESPONSE” (INSERM (INSTITUT NATIONAL DE LA SANTÉ ET DE LA RE- CHERCHE …, priority 2012, published 2015).

System: HMCLs XG-5, XG-6, XG-7, XG-20 and LP1
Details: 0.5 μM, 7 days, 5 HMCLs
Description: Control cells were cultured in the same conditions without adding drug. […] Biotinylated cRNA was amplified with a double in vitro transcription and hybridized to the human U133 2.0 plus GeneChips, according to the manufacturer's instructions (Affymetrix, Santa Clara, Calif.). Fluorescence intensities were quantified and analyzed using the GECOS software (Affymetrix). Gene expression data were normalized with the MASS algorithm and analyzed with inventor's bioinformatics platforms-RAGE (http://[…] Amazonia (http://amazonia.[…] /) (36)-or SAM (Significance Analysis of Microarrays) software (37). The statistical significance of differences in overall survival between groups of patients was calculated by the log-rank test. Multivariate analysis was performed using the Cox proportional hazards model. Survival curves were plotted using the Kaplan-Meier method. All these analyses have been done with R.2.10.1 (http://www.r-project.org/) and bioconductor version 2.5. Gene annotation and networks were generated through the use of Ingenuity Pathways Analysis (Ingenuity® Systems, Redwood City, Calif.) (38).

Nc1ncn([C@H]2C[C@H](O)[C@@H](CO)O2)c(=O)n1 [decitabine, 5-Aza-2′-deoxycytidine]
number of genes downregulated (FDR <5%): 79 genes | number of genes significantly upregulated (FDR <5%): 48 genes | Ratio 226719_at (CDNA FLJ34899 fis) (treated vs control): 0.53 | Ratio 227755_at (CDNA FLJ42435 fis) (treated vs control): 0.53 | Ratio 229969_at (Transcribed locus) (treated vs control): 0.41 | Ratio 230570_at (Transcribed locus) (treated vs control): 0.37 | Ratio 244623_at (Transcribed locus) (treated vs control): 0.39 | Ratio ACRC (238825_at) (treated vs control): 25.99 | Ratio ADFP (209122_at) (treated vs control): 3.70 | Ratio AIG1 (223136_at) (treated vs control): 0.41 | Ratio ALDH1L2 (231202_at) (treated vs control): 0.45 | Ratio ARHGAP9 (224451_x_at) (treated vs control): 0.38 | Ratio ATP1B1 (201243_s_at) (treated vs control): 3.43 | Ratio C6orf48 (220755_s_at) (treated vs control): 0.49 | Ratio C10orf57 (222545_s_at) (treated vs control): 0.56 | Ratio C12orf5 (219099_at) (treated vs control): 2.16 | Ratio C17orf27 (230000_at) (treated vs control): 2.41 | Ratio C20orf118 (235964_x_at) (treated vs control): 2.12 | Ratio CADPS2 (219572_at) (treated vs control): 0.37 | Ratio CBS (212816_s_at) (treated vs control): 0.41 | Ratio CBX4 (227558_at) (treated vs control): 0.49 | Ratio CCPG1 (214152_at) (treated vs control): 0.44 | Ratio COP1 (1552701_a_at) (treated vs control): 2.34 | Ratio COPB2 (213500_at) (treated vs control): 0.58 | Ratio CORO1A (209083_at) (treated vs control): 2.38 | Ratio CT45-2 (235700_at) (treated vs control): 30.39 | Ratio CTAGE5 (215930_s_at) (treated vs control): 0.30 | Ratio CTBS (218923_at) (treated vs control): 0.42 | Ratio DHCR7 (201791_s_at) (treated vs control): 0.45 | Ratio DKFZP586A0522 (207761_s_at) (treated vs control): 2.97 | Ratio DNAJB9 (1554462_a_at) (treated vs control): 0.42 | Ratio DPYD (204646_at) (treated vs control): 0.48 | Ratio DYRK4 (212954_at) (treated vs control): 0.42 | Ratio EAF2 (219551_at) (treated vs control): 0.46 | Ratio EIF2C2 (222294_s_at) (treated vs control): 0.52 | Ratio EIF2S2 (208725_at) (treated vs control): 0.46 | Ratio ELF4 (31845_at) (treated vs control): 1.75 | Ratio ELL2 (226982_at) (treated vs control): 0.45 | Ratio EPSTI1 (227609_at) (treated vs control): 1.99 | Ratio ERN1 (235745_at) (treated vs control): 0.35 | Ratio FKBP11 (219118_at) (treated vs control): 0.38 | Ratio FLJ22028 (219802_at) (treated vs control): 0.44 | Ratio FNDC3A (202304_at) (treated vs control): 0.40 | Ratio G1P2 (205483_s_at) (treated vs control): 2.77 | Ratio GALNT3 (203397_s_at) (treated vs control): 0.65 | Ratio GLS (203157_s_at) (treated vs control): 0.42 | Ratio GNG7 (228831_s_at) (treated vs control): 0.33 | Ratio GOLPH3L (218361_at) (treated vs control): 0.45 | Ratio GSK3B (226183_at) (treated vs control): 0.49 | Ratio GSN (200696_s_at) (treated vs control): 3.97 | Ratio H2-ALPHA (216323_x_at) (treated vs control): 2.56 | Ratio HBS1L (209314_s_at) (treated vs control): 0.53 | Ratio HEXIM1 (202814_s_at) (treated vs control): 2.18 | Ratio HIST1H2BG (210387_at) (treated vs control): 2.00 | Ratio HLA-DPA1 (211990_at) (treated vs control): 1.70 | Ratio HN1 (217755_at) (treated vs control): 2.17 | Ratio ID2 (201565_s_at) (treated vs control): 2.76 | Ratio IDH1 (1555037_a_at) (treated vs control): 0.53 | Ratio IER3 (201631_s_at) (treated vs control): 3.97 | Ratio IFI27 (202411_at) (treated vs control): 2.84 | Ratio IFI35 (209417_s_at) (treated vs control): 1.93 | Ratio IFRD1 (202146_at) (treated vs control): 0.51 | Ratio IGF1 (209541_at) (treated vs control): 0.43 | Ratio IL21R (221658_s_at) (treated vs control): 0.50 | Ratio INHBE (210587_at) (treated vs control): 0.55 | Ratio INSIG1 (201625_s_at) (treated vs control): 0.34 | Ratio ITGB7 (205718_at) (treated vs control): 2.11 | Ratio KIAA0776 (212633_at) (treated vs control): 0.49 | Ratio KIAA1509 (215343_at) (treated vs control): 2.21 | Ratio KIF21B (204411_at) (treated vs control): 0.53
